# From patent US12590953B2, “Methods for screening cereblon modifying compounds” (CELGENE CORPORATION, priority 2018, dated 2026)
# Entries after “also recorded” stand apart in the source; their conditions may differ.
# Columns and labels:
# [1] = target: T1, endogenous SALL4 in NCCIT, NETRA-2 c1.D1 and AN3-CA cancer cell lines (Homo sapiens, UniProt Q96SW2+Q9UJQ4); assay: Degradation of endogenous SALL4 in cancer cell lines, western blot; type: cell-based; settings: 16 hour treatment; anti-SALL4 western blot
# T1 construct: endogenous in cells; host or cells: NCCIT, NETRA-2 c1.D1 and AN3-CA cancer cell lines
# [2] = target: T2, ZFP91 cereblon-binding zinc finger (a.a. 395-423) / human cereblon (Homo sapiens, UniProt Q96JP5+Q96SW2); assay: In vitro ubiquitination of ZFP91 zinc finger by human cereblon; type: biochemical; settings: thalidomide vs DMSO
# T2 construct: Human cereblon-DDB1 (cereblon amino acids 40-442 and full length DDB1); ZZ-domain-6xHis-thrombin site (N, cleaved yes); made in house; host or cells: SF9 insect cells (cereblon-DDB1, Cul4A-Rbx1); E. coli BL21 (DE3) Star (MBP-zinc finger)
# Method: Glycine degron-containing zinc fingers are highlighted with stars. […] Ubiquitination reactions were separated by SDS-PAGE followed by anti-MBP western blot. […] Results in panels b and c are representative of 3 independent experiments.
# Purified E1, E2, ubiquitin, Cul4A-Rbx1, cereblon-DDB1, and GSPT1 proteins were used to reconstitute the ubiquitination of MBP-fused WT and mutant proteins in vitro. Substrate proteins purified by maltose affinity resin (NEB) were incubated at an approximate concentration of 30 uM. Ubiquitination components described briefly: Human cereblon-DDB1 (cereblon amino acids 40-442 and full length DDB1) and 6×his-DDB1 alone were co-expressed in SF9 insect cells in the presence of 50 μM zinc acetate, and purified by nickel affinity resin (Qiagen), HiTrap ANX column ion exchange (GE Healthcare), and Sephacryl 400 16/60 size exclusion chromatography (GE healthcare). Human full length Cul4A and Rbx1 were co-expressed in SF9 insect cells and purified by nickel affinity resin and Superdex 200 16/60 size exclusion chromatography. Purified recombinant human Ube1 E1 (E-305), UbcH5a E2 (E2-616), and ubiquitin (U-100H) were purchased from R&D systems. […]
# [3] = tested on: SALL4 binding to cereblon; type: cell-based, human
# Method: Binding of full length SALL4 to cereblon in cells was then tested by co-immunoprecipitation (see FIG. 3). HA-tagged WT, G416A, or G600A SALL4 was immunoprecipitated from cells, and the level of co-purifying cereblon was assessed by western blot. Briefly, a Lenti-x 293 cell line with a CRISPR-cas9 knock-out of cereblon and stable expression of HA-tagged SALL4 or SALL4 mutants was transfected with either GST-cereblon or empty vector. […] The amount of co-purifying GST-cereblon was then assessed by western blot.
# [4] = Toxicokinetics in huCRBN mice; type: in vivo; settings: oral, GD 15
# Method: Thalidomide was administered to female HOM huCRBN mice by oral gavage at dose levels of 0 (1.0% [w/v] carboxymethylcellulose [1500-3000 cP] in RO deionized water), 100, 300, or 1000 mg/kg/day once daily on Gestation Day [GD] 6 through 15. On GD 15, blood samples were collected from the submandibular vein of mice assigned to study at 0.5, 1, 3, 6, and 24 hours postdose for bioanalytical and toxicokinetic evaluation. […] Mice were euthanized and examined, and a gross necropsy was performed. The ovaries and uterus were examined for number and distribution of corpora lutea, implantation sites, placentae (size, color, and shape), live and dead fetuses, and early and late resorptions. Fetuses were euthanized by an intraperitoneal injection of sodium pentobarbital (390 mg/mL). Fetuses were weighed and examined for sex and external abnormalities. Late resorptions were examined for external abnormalities and sex to the extent possible. The body weight of each fetus was recorded. Fetuses were individually identified with the study number, litter number and uterine distribution. Approximately one-half of the fetuses in each litter were examined for visceral abnormalities by using an adaptation of the sectioning technique of Wilson. Each fetus was fixed in Bouin's solution; sections were stored in alcohol. The remaining fetuses (approximately one-half of the fetuses in each litter) were examined for skeletal abnormalities after staining with alizarin red S. Following examination, skeletal preparations were retained in glycerin with thymol added as a preservative.
# SALL4 mRNA = assay: qRT-PCR of SALL4 mRNA in human iPS cells; type: cell-based; settings: 20 μM thalidomide, 16 hours, normalized with GAPDH
# Method: Quantitative RT-PCR analysis was performed to human iPS cells treated with DMSO or 20 μM thalidomide (THA) for 16 hours. The relative mRNA level of SALL4 and POU5F1(OCT4) was normalized with GAPDH (n=2, biological replicates).
# Total RNA was extracted from human iPS cells using RNeasy Mini Kit (Qiagen) according to manufacturer's instruction, and reverse-transcribed into first-strand cDNA with random primer using SuperScript™ IV First-Strand Synthesis System (ThermoFisher). Real-time PCR was performed in triplicate using ViiA 7 Real-Time PCR System with TaqMan Gene Expression Assay probes (ThermoFisher) for SALL4 (#4351372), POU5F1(#4331182) and GAPDH (#4326317E).
# T2 sequence (Q96SW2 40-442 limits assumed): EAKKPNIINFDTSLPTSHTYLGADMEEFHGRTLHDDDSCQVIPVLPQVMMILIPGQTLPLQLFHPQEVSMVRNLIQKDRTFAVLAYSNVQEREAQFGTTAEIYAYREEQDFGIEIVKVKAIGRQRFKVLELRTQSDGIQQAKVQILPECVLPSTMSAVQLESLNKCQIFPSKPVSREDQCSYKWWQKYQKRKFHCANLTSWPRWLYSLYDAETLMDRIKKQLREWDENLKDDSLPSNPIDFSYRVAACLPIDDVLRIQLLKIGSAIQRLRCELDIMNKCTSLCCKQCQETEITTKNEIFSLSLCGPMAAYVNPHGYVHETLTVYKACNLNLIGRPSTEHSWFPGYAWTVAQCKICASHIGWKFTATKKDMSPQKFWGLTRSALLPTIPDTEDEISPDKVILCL
# T2 sequence (Q96JP5 395-423 limits assumed): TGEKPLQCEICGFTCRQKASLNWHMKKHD
# T2 sequence (Q16531 whole entry partner, the tested form may be a part): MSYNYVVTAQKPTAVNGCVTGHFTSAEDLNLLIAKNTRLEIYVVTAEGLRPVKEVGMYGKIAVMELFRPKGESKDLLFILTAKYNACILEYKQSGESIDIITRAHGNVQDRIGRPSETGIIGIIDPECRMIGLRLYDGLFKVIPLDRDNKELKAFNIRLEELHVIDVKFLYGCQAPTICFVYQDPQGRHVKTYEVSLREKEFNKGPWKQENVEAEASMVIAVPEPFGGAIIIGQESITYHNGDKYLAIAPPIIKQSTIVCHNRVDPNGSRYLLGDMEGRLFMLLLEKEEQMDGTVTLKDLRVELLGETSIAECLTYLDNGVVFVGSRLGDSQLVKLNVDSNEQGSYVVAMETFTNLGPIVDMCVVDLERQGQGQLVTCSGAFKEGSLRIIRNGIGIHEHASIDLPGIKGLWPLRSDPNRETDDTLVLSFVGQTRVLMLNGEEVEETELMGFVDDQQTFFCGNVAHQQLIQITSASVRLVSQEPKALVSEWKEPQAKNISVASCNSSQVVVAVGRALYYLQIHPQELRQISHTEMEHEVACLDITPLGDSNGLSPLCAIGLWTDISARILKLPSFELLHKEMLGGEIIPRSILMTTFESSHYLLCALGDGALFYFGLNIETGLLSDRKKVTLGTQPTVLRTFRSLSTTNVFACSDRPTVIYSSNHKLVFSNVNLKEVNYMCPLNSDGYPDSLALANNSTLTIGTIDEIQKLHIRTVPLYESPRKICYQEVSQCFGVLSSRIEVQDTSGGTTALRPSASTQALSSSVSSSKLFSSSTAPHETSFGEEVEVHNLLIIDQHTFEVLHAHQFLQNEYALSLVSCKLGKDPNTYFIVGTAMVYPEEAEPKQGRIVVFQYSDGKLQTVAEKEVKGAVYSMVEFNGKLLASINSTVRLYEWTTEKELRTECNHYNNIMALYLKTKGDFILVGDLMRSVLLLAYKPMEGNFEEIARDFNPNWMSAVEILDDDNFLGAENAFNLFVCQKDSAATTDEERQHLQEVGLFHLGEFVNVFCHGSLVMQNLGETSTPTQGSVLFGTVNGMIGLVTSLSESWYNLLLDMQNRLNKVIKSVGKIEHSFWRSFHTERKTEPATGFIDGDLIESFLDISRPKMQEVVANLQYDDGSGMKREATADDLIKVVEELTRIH
# T2 sequence (Q13619 whole entry partner, the tested form may be a part): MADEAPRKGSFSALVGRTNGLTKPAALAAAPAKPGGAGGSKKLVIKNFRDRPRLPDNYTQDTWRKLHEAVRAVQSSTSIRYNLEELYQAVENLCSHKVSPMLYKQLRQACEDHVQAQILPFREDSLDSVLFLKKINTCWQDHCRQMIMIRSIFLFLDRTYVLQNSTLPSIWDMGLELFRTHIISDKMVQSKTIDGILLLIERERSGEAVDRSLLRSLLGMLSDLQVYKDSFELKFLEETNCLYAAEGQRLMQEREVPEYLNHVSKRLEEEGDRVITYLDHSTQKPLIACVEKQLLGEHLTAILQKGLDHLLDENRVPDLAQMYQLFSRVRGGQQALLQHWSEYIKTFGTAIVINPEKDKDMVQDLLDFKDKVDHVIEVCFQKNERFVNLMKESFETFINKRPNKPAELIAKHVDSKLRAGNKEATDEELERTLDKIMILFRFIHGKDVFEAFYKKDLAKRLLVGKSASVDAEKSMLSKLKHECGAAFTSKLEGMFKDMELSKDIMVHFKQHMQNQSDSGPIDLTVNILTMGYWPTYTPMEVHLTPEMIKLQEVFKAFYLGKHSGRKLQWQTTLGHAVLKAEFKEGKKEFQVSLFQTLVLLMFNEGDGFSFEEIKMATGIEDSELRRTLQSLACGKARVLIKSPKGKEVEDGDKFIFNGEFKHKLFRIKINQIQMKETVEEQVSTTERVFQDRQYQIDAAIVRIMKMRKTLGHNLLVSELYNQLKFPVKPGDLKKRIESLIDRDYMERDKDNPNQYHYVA
# T2 sequence (P62877 whole entry partner, the tested form may be a part): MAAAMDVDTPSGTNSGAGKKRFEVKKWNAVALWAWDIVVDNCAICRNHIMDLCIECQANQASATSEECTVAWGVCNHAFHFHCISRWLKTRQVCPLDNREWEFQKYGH
compound,measurement,setting,value
O=C1CCC(N2C(=O)c3ccccc3C2=O)C(=O)N1 (stereo not drawn) [thalidomide],Degradation of endogenous SALL4,[1],Significant compound-dependent degradation of endogenous SALL4 was observed
same,Ubiquitination of ZFP91 zinc finger (a.a. 395-423) by human cereblon,[2],efficiently ubiquitinated by human cereblon in a thalidomide-dependent manner
same,Binding of G416A SALL4 to cereblon,"[3]; HA-tagged G416A SALL4, anti-HA pull-down",disrupted the binding significantly
same,Binding of G600A SALL4 to cereblon,"[3]; HA-tagged G600A SALL4, anti-HA pull-down","strong, compound-dependent binding to cereblon"
same,"Binding of WT SALL4 to cereblon (co-purifying GST-cereblon, western blot)","[3]; HA-tagged WT SALL4, anti-HA pull-down","strong, compound-dependent binding to cereblon"
same,Mean plasma exposure (area under the curve),[4]; 100 mg/kg/day,"35,100 ng·hr/mL"
same,Mean plasma exposure (area under the curve),[4]; 300 mg/kg/day,"78,600 ng·hr/mL"
same,Mean plasma exposure (area under the curve),[4]; 1000 mg/kg/day,"143,000 ng·hr/mL"
same,SALL4 mRNA levels,SALL4 mRNA,"not reduced by thalidomide treatment (FIG. 7E), and are instead increased; also recorded: decrease in SALL4 protein levels is not due to transcriptional downregulation"
